One assay concerns the target BTK recombinant protein (Homo sapiens (Human), UniProt Q06187). In words: Determination of biochemical BTK (Z'-LYTE kinase assay). An excerpt: Example 2 Determination of Biochemical BTK
(§1) 1. Reagents and Materials
BTK recombinant protein: Invitrogen, Cat #PV3363;
Z′-LYTE® kinase test kit-tyrosine 1 peptide: Invitrogen, Cat #PV3190;
Z′-LYTE® biochemical assay employs a fluorescence resonance energy transfer (FRET)—based, coupled-enzyme format and is based on the differential sensitivity of phosphorylated and non-phosphorylated peptides to proteolytic cleavage. Both ends of the short peptide substrate are labeled with two fluorescent groups to form a FRET paired combination. In the primary reaction (the Kinase Reaction), the kinase transfers the γ-phosphate of ATP to a single […] residue on the short peptide substrate. In the secondary reaction (the development reaction), the non-phosphorylated short peptides were recognized and cleaved by a site-specific protease (the development reagent). Phosphorylated short peptides can resist such cleavage. Cleavage of short peptides can disrupt the donor (such as coumarin) and receptor fluorophores (fluorescein) on the short peptides, while the phosphorylated short peptides can maintain FRET. The calculation method of the ratio is as follows, and the ratio of the respective emission signals generated by the donor fluorophores emitted (after excitation at 400 nm) to the receptors is calculated. Emission signal ratio=emitted light by coumarin (445 nm)/emitted light by fluorescein (520 nm). If the FRET short peptide is phosphorylated (such as no kinase inhibitor), the emitted light ratio will remain in a lower level. If the FRET short peptide is non-phosphorylated (such as kinase inhibitor), the emitted light ratio will be in a higher level. In this way, the inhibitory effects of different compound inhibitors on BTK kinase activity would be distinguished.
The experiment were carried out according to the instructions of the Z′-LYTE® kinase test kit-tyrosine 1 peptide. Reagent preparation: 1.33× kinase buffer: 5× kinase buffer was diluted with water to 1.33× kinase buffer; an enzyme solution: the kinase was dissolved in 1.33× kinase buffer with the final working concentration being 3.32 nM; a short peptide solution: a short peptide stock solution (1 mM dissolved in DMSO) was dissolved in 1.33× kinase buffer with the final working concentration being 2 μM; Z′-LYTE Tyr01 phosphorylated short peptide solution, 0.6 μl of stock solution (1 mM dissolved in DMSO) was dissolved in 149.4 μl of 1.33× kinase buffer; an ATP solution: an ATP stock solution (10 mM aqueous solution) was dissolved in 1.33× kinase buffer with the final working concentration being 32 μM; a color-developing solution: color-developing solution B was dissolved in color-developing buffer with the final working concentration being 1× color-developing solution; 4× compound preparation: the compound was diluted in 3-fold gradient concentration to finally obtain 4% DMSO aqueous solution containing different concentrations of the compound, with the final working concentration being 3000, 1000, 333.33, 111.11, 37.04, 12.35, 4.12, 1.37 nM, 8 concentration points in total.
Specific steps of the experiment: In the experiment, there were three control groups, each with 8 replicate wells, which were C1 100% inhibition group (no ATP), C2 0% inhibition group (with ATP), and C3 100% phosphorylation group, respectively. 2.5 μl of serially diluted compound was added to each well of a 384-well plate, with double replicate wells, and 4% DMSO solution was added to wells C1, C2, and C3. After that, except for wells C3, 2.5 μl of BTK enzyme solution was added to each remaining well, which was left to stand at 4° C. for 30 minutes. After that, except for wells C3, 2.5 μl of short peptide solution was added to each well, and 5 μl of phosphorylated short peptide solution was added to each of wells C3. 2.5 μl of 1.33× kinase buffer was added to each of wells C1 and C3, and 2.5 μl of ATP solution was added to each of the remaining wells. […]

In assay [1] the target is phosphorylated BTK in Ramos cells (Homo sapiens (Human), UniProt Q06187). The experiment in a line: Determination of phosphorylated BTK in Ramos cells (BTK phospho-Y223 HTRF). Type of assay: cell-based. Conditions: anti-human IgM + hydrogen peroxide stimulation. As to the method: Determination of Phosphorylated BTK in Ramos Cells
phosphorylated BTK in Ramos cells, sequence (Q06187 whole entry): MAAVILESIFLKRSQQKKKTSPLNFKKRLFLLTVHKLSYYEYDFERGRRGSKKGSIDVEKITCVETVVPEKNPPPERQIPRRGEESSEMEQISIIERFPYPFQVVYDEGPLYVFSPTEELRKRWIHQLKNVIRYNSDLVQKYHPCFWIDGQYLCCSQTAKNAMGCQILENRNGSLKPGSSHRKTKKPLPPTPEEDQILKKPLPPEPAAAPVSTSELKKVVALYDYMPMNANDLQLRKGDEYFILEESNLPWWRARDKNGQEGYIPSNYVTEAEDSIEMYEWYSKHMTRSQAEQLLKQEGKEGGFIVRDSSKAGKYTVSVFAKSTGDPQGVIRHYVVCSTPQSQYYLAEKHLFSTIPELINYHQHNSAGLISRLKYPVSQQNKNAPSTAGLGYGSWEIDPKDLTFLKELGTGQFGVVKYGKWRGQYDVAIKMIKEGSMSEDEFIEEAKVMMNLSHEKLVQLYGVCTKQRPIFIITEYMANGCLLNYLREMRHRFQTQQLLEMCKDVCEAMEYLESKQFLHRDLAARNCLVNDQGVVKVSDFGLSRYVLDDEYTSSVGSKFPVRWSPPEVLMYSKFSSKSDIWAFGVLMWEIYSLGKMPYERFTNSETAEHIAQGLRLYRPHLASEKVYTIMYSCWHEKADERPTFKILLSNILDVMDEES
as §1
Ramos cells: Ramos cells were purchased from American Standard Biological Collection Center ATCC Cell Bank, PRMI 1640 medium containing L-glutamine, 1.5 g/L of sodium bicarbonate, 2.383 g/L of HEPES solution, 0.11 g/L of sodium pyruvate and 4.5 g/L of glucose was used, added 10% fetal bovine serum FBS, and placed in a 5% CO2, 37° C. cell incubator for normal culture;
Phosphorylated BTK HTRF detection kit (BTK phospho-Y223 HTRF kit): Cisbio, Cat #63ADK017PEH;
Ramos cells were starved in PRMI 1640 medium with 1% FBS for 2 hours. The starved Ramos cells were diluted with Hank's balanced salt solution to 5.0×10^6 cells/ml, seeded in a 96-well plate with 20 μL/well (1.0×10^5 cells/well), and cultured in a 5% CO2, 37° C. cell incubator. After culturing for 1 hour, the test compound was diluted with Hank's balanced salt solution in 4-fold gradient to the corresponding concentrations, and then 5 μL/well of the diluted test compound with different concentrations (the final concentrations of the test compound were 3.0, 0.75, 0.188, 0.047, 0.012, 0.0029, 0.0007 and 0.00018 μM, and the final concentration of DMSO was 0.3%, double replicate wells) or 5 μL/well of control solution (1.5% DMSO, 8 replicate wells) were added to 20 μL/well of cell culture system, which incubated together for another hour, then 5 μL/well of a mixed solution of human immunoglobulin M (final concentration was 10 μg/mL) and hydrogen peroxide (final concentration was 3.3 mM) diluted with Hank's balanced salt solution was added to the treating wells for the test compound and the control treating wells for anti-human immunoglobulin M, and 5 μL/well of Hank's balanced salt solution was added to negative control treating wells. The plate was incubated in a 5% CO2, 37° C. cell incubator for 10 minutes.
10 μL/well of cell lysis buffer was added to each well of a 96-well plate, which was mixed well and lysed at room temperature for 30 minutes. 16 μL/well of lysis buffer was pipetted to a new 384 well plate, and then added 4 μL/well of phosphorylated BTK antibody, centrifuged (1000 rpm) for 1 minute, then shaken for 1 minute, further centrifuged (1000 rpm) for 1 minute, and finally placed in a constant temperature incubator overnight. Detection was performed on the next day.
The 384 well plate incubated overnight in the constant temperature incubator was taken out to detect the luminescence signal using the Envision microwell plate reader at the […]. The reading value at 665 nm/615 nm of each well multiplied by 104 was used as the signal value of each well.
The average signal value of the wells supplemented with the mixed solution of human immunoglobulin M (final concentration was 10 μg/mL) and hydrogen peroxide (final concentration was 3.3 mM) without the test compound was regarded as the high value, and the average signal value of the wells without immunoglobulin M stimulation and without the test compound was regarded as the low value. According to the signal value in each well, the inhibition ratio (%) of each concentration of compounds was calculated, and the 205 model in XL-Fit 5.3 software (ID Business Solutions Limited) was used to obtain an IC50 value.
The inhibition ratio is calculated as follows: inhibition ratio (%)=100%−{(treating well for the test compound−negative control treating well)/(control treating well for anti-human immunoglobulin M−negative control treating well)}×100%, wherein,
Treating well for the test compound: represents the signal value of Ramos cells treated with anti-human immunoglobulin M, hydrogen peroxide and the test compound.
Control treating well for anti-human immunoglobulin M: represents the signal value of Ramos cells treated with anti-human immunoglobulin M, hydrogen peroxide but without the test compound. […]
(In general: In TR-FRET formats the signal depends on donor and acceptor labels being close together.)

BTK recombinant protein, sequence (Q06187 whole entry): as above

As to “2-(3′-(hydroxymethyl)-5-((5-(2-methoxyethyl)-4-methyl-4,5,6,7-tetrahydropyrazolo[1,5-a]pyrazin-2-yl) amido)-1-methyl-6-oxo-1,6-dihydro-[3,4′-bispyridin]-2′-yl)-7,7-dimethyl-7,8-dihydro-2H-cyclopenta[4,5]pyrrolo[1,2-d][1,2,4]triazin-1(6H)-one optically Pure [Compound 120]”, the IC50 came to 8 nM on BTK recombinant protein and 5 nM in assay [1].
In the case of `Cn1cc(-c2ccnc(-n3ccn4c(c(F)c5ccccc54)c3=O)c2CO)cc(Nc2cc3n(n2)CCN(C2COC2)C3)c1=O` [Compound 178], the IC50 at BTK recombinant protein came out at 6 nM; in assay [1] it was 12 nM.
As for `Cn1cc(-c2ccnc(-n3ncn4c5c(cc4c3=O)CC(C)(C)C5)c2CO)cc(Nc2ccc(C3CN(C4COC4)C3)cn2)c1=O` [Compound 141], the IC50 on BTK recombinant protein amounted to 14 nM; in assay [1], 13 nM.
For `Cn1cc(-c2ccnc(-n3ccn4c5c(cc4c3=O)CC(C)(C)C5)c2CO)cc(Nc2ccc(N[C@@H]3CC[C@@H](CO)OC3)cn2)c1=O` [Compound 46], the concentration for half-maximal inhibition (IC50) amounted to 8 nM at BTK recombinant protein and 5 nM in assay [1].
On the same counts, the results for `Cn1cc(-c2ccnc(-n3ncn4c5c(cc4c3=O)CC(C)(C)C5)c2CO)cc(Nc2cc3n(n2)CCN(C2CCC2)C3)c1=O` [Compound 170] are 18 nM and 16 nM.
Turning to `CC(C)n1cc(Nc2nc(-c3ccnc(-n4ccn5c6c(cc5c4=O)CC(C)(C)C6)c3CO)cn(C)c2=O)nn1` [Compound 4], the values for the IC50 (at BTK recombinant protein; in assay [1]) were 756 nM and 480 nM, respectively.
On to `COCCN1CCn2nc(Nc3cc(-c4ccnc(-n5ccn6c7c(cc6c5=O)CC(C)(C)C7)c4CO)cn(C)c3=O)cc2C1C` (centres unmarked) [Compound 111], for which the IC50 at BTK recombinant protein stood at 8 nM; in assay [1], 2 nM.
On the same counts, the results for `CCn1cc(Nc2nc(-c3ccnc(-n4ccn5c6c(cc5c4=O)CC(C)(C)C6)c3CO)cn(C)c2=O)nn1` [Compound 3] are 224 nM and 339 nM.
Take `Cn1cc(Nc2cc(-c3ccnc(-n4ccn5c6c(cc5c4=O)CC(C)(C)C6)c3CO)cn(C)c2=O)cn1` [Compound 86]: the IC50 at BTK recombinant protein amounted to 16 nM; in assay [1], 6 nM.
As to `Cc1c(-c2cc(Nc3ccc(N4CCN(C5COC5)C[C@@H]4C)cn3)c(=O)n(C)c2)ccnc1-n1ccn2c3c(cc2c1=O)CC(C)(C)C3` [Compound 12], the half-maximal inhibitory concentration (IC50) at BTK recombinant protein turned out to be 230 nM; in assay [1] it was 13 nM.
For `[2H]C(O)c1c(-c2cc(Nc3ccc(N4CCN(C5([2H])COC5)C[C@@H]4C)cn3)c(=O)n(C)c2)ccnc1-n1ccn2c3c(cc2c1=O)CC(C)(C)C3` (mixture of isomers) [Compound 101], the half-inhibitory concentration (IC50) came to 6 nM on BTK recombinant protein and 2 nM in assay [1].
Regarding `[2H]C([2H])([2H])n1cc(-c2ccnc(-n3ccn4c5c(cc4c3=O)CC(C)(C)C5)c2CO)cc(Nc2ccc(N3CCN(C4COC4)C[C@@H]3C)cn2)c1=O` [Compound 97], the IC50 at BTK recombinant protein came to 9 nM; in assay [1] it was 3 nM.
With `Cc1cc(Nc2cc(-c3ccnc(-n4ccn5c6c(cc5c4=O)CC(C)(C)C6)c3CO)cn(C)c2=O)ncn1` [Compound 54], the results for the IC50 (at BTK recombinant protein; in assay [1]) were 15 nM and 16 nM, respectively.
As to `Cn1cc(-c2ccnc(-n3ccn4c5c(cc4c3=O)CC(C)(C)C5)c2CO)cc(Nc2ccc(C3CN(C4COC4)C3)cn2)c1=O` [Compound 140], the IC50 at BTK recombinant protein was less than 1 nM; in assay [1] it was 11 nM.
Consider `C[C@H]1CN(C2COC2)CCN1c1ccc(Nc2cc(-c3ccnc(-n4ccn5c6c(cc5c4=O)CC(C)(C)[C@@H]6O)c3CO)cn(C)c2=O)nc1` [Compound 198], for which the IC50 amounted to 4 nM on BTK recombinant protein and 12 nM in assay [1].
On the same counts, the results for `C[C@H]1CN(C2COC2)CCN1c1ccc(Nc2cc(-c3ccnc(-n4ccn5c6c(cc5c4=O)CCCCC6)c3CO)cn(C)c2=O)nc1` [Compound 92] are 10 nM and 7 nM.
Turning to `COC1CN(c2ccc(Nc3cc(-c4ccnc(-n5ccn6c7c(cc6c5=O)CC(C)(C)C7)c4CO)cn(C)c3=O)nn2)C1` [Compound 159], the half-maximal inhibitory concentration (IC50) was determined as 6 nM on BTK recombinant protein and 26 nM in assay [1].
Regarding `COCC(C)N1CCn2nc(Nc3cc(-c4ccnc(-n5ccn6c7c(cc6c5=O)CC(C)(C)C7)c4CO)cn(C)c3=O)cc2C1` (centres unmarked) [Compound 115], the figures for the 50% inhibitory concentration (IC50) (on BTK recombinant protein; in assay [1]) were 12 nM and 10 nM, respectively.
For `C[C@H]1CN(C2COC2)CCN1c1ccc(Nc2cc(-c3cncc(-n4ccn5c6c(cc5c4=O)CC(C)(C)C6)c3CO)cn(C)c2=O)nc1` [Compound 216], the half-inhibitory concentration (IC50) on BTK recombinant protein turned out to be 11 nM; in assay [1], 7 nM.
Take `Cn1cc(-c2ccnc(-n3ccn4c(c(F)c5ccccc54)c3=O)c2CO)cc(Nc2ccc(C3CN(C4COC4)C3)cn2)c1=O` [Compound 183]: the IC50 was 25 nM at BTK recombinant protein and 67 nM in assay [1].
On the same counts, the results for `COCCN1CCn2nc(Nc3cc(-c4ccnc(-n5ccn6c7c(cc6c5=O)CC(C)C7)c4CO)cn(C)c3=O)cc2C1` (centres unmarked) [Compound 168] are 28 nM and 20 nM.
As to `CCn1cc(-c2ccnc(-n3ccn4c5c(cc4c3=O)CC(C)(C)C5)c2CO)cc(Nc2ccc(N3C[C@@H](C)N(C4COC4)C[C@@H]3C)cn2)c1=O` [Compound 215], the values for the IC50 (on BTK recombinant protein; in assay [1]) were 31 nM and 51 nM, respectively.

One may read the IC50 as the concentration at which inhibition is half-maximal.

(Values after patent US11478474B2, “2-(3′-(hydroxymethyl)-1-methyl-5-((5-(2-methyl-4-(oxetan-3-yl)piperazin-1-yl)pyridin-2-yl)amino)-6-oxo-1,6-dihydro-[3,4′-bipyridin]-2′-yl)-7,7-dimethyl-7,8-dihydro-2H-cyclopenta[4,5]pyrrolo[1,2-a]pyrazin-1(6H)-one as a BTK inhibitor” (HUTCHISON MEDIPHARMA LIMITED, priority 2020, dated 2022).)
